We go through three compounds from paper PMC7714830, “Quantification of the Cannabinoid Type 1 Receptor Availability in the Mouse Brain” (Frontiers in Neuroanatomy, 2020).

Structures are written as SMILES. Read-outs that look alike come from different tables or passages of the source. Where only a bound is given, the exact number is not on record here.

Series [1] deals with CB1 receptor. Also on record: method as in Horti et al., 2006. As to conditions: ref Horti et al., 2006; cited from earlier work.
Series [2] relates to CB1 receptor. Also noted: method as in Herance et al., 2011. As to conditions: knock-out n = 4, wild-type n = 4; period 40–60 min; ref Herance et al., 2011; cited from earlier work.
Series [3] deals with CB1 receptor. Also on record: method as in Burns et al., 2007; Liu et al., 2007. As to conditions: ref Burns et al., 2007, Liu et al., read-out: affinity to the CB1 receptor, IC50; cited from earlier work.
On the set-up of series [4]: method as in Burns et al., 2007; Liu et al., 2007. As to conditions: ref Burns et al., 2007, Liu et al.; cited from earlier work.
Series [5] has as its target T1, CB1 receptor (Mus musculus, UniProt P47746). Description: [18F]MK-9470 PET in a CB1 receptor knock-out mouse and a wild-type mouse (re-analysis of the whole time course). It is filed as in vivo. Also noted: Two mice, a CB1 receptor-deficient mouse, and a wild-type mouse; from tissue; host or cells: brain of a living wild-type mouse; the CB1-/- mouse serves as the receptor-free control. As to conditions: CB1 knock-out vs wild-type mouse. The procedure: (§1) Two mice, a CB1 receptor-deficient mouse, and a wild-type mouse, whose data acquisition is described in Miederer et al. ([2013]), were re-analyzed.
(§2) (A) Left: CB1 receptor knock-out mouse, right: wild-type mouse. Positron emission tomography (PET) images were summed from 40 to 60 min [injected radioactivity: 8.5 MBq (CB1^−/−) and 8.0 MBq (CB1^+/+), anaesthesia: 0.2 ml xylazine/ketamine, data acquisition: 60 min]. (B) Standardized volumes-of-interest (VOI) were drawn for the whole mouse brains (n = 2). Extracted radioactivity concentrations were normalized to the maximum radioactivity concentration in the wild-type mouse.

Series [6] deals with T1, CB1 receptor. Description: [18F]MK-9470 small animal PET of the mouse brain (%ID/ml, 40–60 min). It is filed as in vivo, mouse (C57BL/6J). Also noted: Six male C57BL/6J mice; from tissue; host or cells: brain of living male C57BL/6J mice (in vivo PET). The note with it: for [^18F]MK-9470 %ID/ml: PET 40–60 min, mean ± SD. The text has this:
Six male C57BL/6J mice (21.5–28.1 g, 6–9 weeks of age; obtained from the Translational Animal Research Center—TARC of the University Medical Center Mainz) were examined. All applicable international, national, and/or institutional guidelines for the care and use of animals were followed. This study was approved by the respective state authorities (Landesuntersuchungsamt Rheinland-Pfalz).
Isoflurane inhalation anesthesia (2% isoflurane vaporized in 60% oxygen) was used to immobilize the mice, which were positioned in the small animal PET scanner in the headfirst prone position. A venous catheter, which was placed in one of the tail veins, was used to inject [^18F]MK-9470. Together with the injection, a 60-min PET measurement was started with a Focus 120 small animal PET scanner (Siemens/CTI, Knoxville, TN, USA). This small animal PET scanner has lutetium oxyorthosilicate detectors having a size of 1.5 × 1.5 × 10 mm^3 for coincidence detection of photons (time window: 6 ns). The resolution in the center of the field of view is ≤1.4 mm. As part of the quality control, a detector normalization and cross-calibration with a dose calibrator (VDC 404, Veenstra Instruments, Joure, Netherlands) were performed regularly. The PET data acquisition took place in the list mode data format.
The list-mode data, acquired for this study, were sorted into a sinogram matrix with frames of 3 × 20, 3 × 60, 3 × 120, 10 × 300 s (=19 frames). The data were reconstructed with filtered back-projection [ramp filter (cut-off = 0.5)] into a 128 × 128 matrix with 95 slices of 0.8 mm thickness (pixel size 0.87 × 0.87 mm^2). Corrections included detector dead time and random coincidences, which yielded images in the unit Bq/ml.
PET data were co-registered to the T2-weighted magnetic resonance image (MRI) template provided by the PMOD software (version 4.0, Zurich, Switzerland) based on the work of Ma et al. ([2005]) and Mirrione et al. ([2007]). […] The outcome parameter was calculated as %ID/ml = mean value of the radioactivity concentration (in the unit Bq/ml)/injected radioactivity (in the unit Bq) × 100% and included the 40–60 min acquisition interval for individual brain regions. All results were reported as mean ± standard deviation. A two-tailed paired t-test was used to compare means for VOI of different receptor densities and thus, four main comparisons were defined before the analyses: cerebellum vs. pons, caudate putamen vs. pons, cerebellum vs. hippocampus, and hippocampus vs. pons. The global significance level was αglobal = 0.05 and a Bonferroni correction yielded a local significance level of αlocal = 0.0125.
To facilitate the comparison between (quantitative, continuous) PET data and (qualitative) IHC data, the data were classified into four categories, namely no (−), low (+), mean (++) and high (+++) accumulation of the radioactivity concentration or immunohistochemical staining. The IHC data were classified based on visual inspections of the results and their descriptions in the literature sources. Statements such as “little or no,” “few” or “void” led to a classification of “–.” Statements like “low,” “some” or “weak” were classified as “+.” Descriptions like “network of CB1-immunoreactive fibers” or “intensely CB1 receptor-ir fiber meshwork” led to a rating of “++” and statements like “dense meshwork of fibers” or “very high concentration of CB1-immunoreactivity” were rated as “+++.” The PET data were classified based on the outcome parameter %ID/ml, ranging from mean values of 1.5–2.6 %ID/ml, and were subdivided into three categories. That is, signals within the interval 1.5–1.8 %ID/ml lead to a rating of “+.” Parameters within the interval 1.8–2.2 %ID/ml were rated as “++” and signals within the interval 2.2–2.6 %ID/ml were classified as “+++.” As there was no brain region devoid of a PET signal, the category “−” was omitted here.

The subject of series [7] is CB1 receptor. Description: [18F]MK-9470 PET in a CB1 receptor knock-out mouse and a wild-type mouse (re-analysis of the whole time course). It is filed as in vivo. The procedure:
as §1, §2

The test system of series [8] is CB1 receptor. As to conditions: human brain; ref Burns et al., 2007; cited from earlier work.
The subject of series [9] is CB1 receptor. As to conditions: cited from earlier work.
Setting [10] is: Tectum mesencephalic: colliculus inferior.
The mark [11] stands for this setting: Tectum mesencephalic: colliculus superior.

T1 sequence (P47746 whole entry): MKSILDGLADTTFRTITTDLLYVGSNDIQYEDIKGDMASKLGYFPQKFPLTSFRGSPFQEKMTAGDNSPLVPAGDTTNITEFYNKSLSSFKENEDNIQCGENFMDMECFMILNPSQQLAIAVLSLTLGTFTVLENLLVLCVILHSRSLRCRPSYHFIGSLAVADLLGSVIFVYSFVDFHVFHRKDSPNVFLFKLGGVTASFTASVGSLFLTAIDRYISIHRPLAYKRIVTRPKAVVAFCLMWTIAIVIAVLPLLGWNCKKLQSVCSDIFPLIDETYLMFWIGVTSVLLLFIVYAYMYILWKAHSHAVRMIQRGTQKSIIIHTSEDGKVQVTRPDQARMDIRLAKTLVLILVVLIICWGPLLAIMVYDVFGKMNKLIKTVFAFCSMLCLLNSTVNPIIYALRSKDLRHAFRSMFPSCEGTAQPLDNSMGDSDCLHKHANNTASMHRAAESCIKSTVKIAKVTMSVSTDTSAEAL

Turning to `[11CH3]Oc1ccc(-c2c(C#N)c(C(=O)NN3CCCCC3)nn2-c2ccc(Cl)cc2Cl)cc1` [[^11C]OMAR, 1–(2,4-dichlorophenyl)-4-cyano-5–(4-[^11C]methoxyphenyl)-N-(piperidin-1-yl)-1H-pyrazole-3-carboxamide], in the series with CB1 receptor [1], the “%ID/ml values in mouse brain regions” value is given as 2.5–6 %ID/ml. Besides, the “lower uptake in knock-out mice as compared to wild-type mice” value with CB1 receptor [2] is 50%.
`Cc1ccc(OC(C)(C)C(=O)N[C@@H](C)[C@@H](Cc2ccc(OCCF)cc2)c2cccc(C#N)c2)nc1` [[^18F]MK-9470, N-(1S,2S)-2–(3-cyanophenyl)-3–[4-(2-[^18F]fluoroethoxy)phenyl]-1-methylpropyl-2-methyl-2-[(5-methylpyridin-2-yl)oxy]propanamide]: the IC50 at CB1 receptor [3] is 0.7 nM.
Turning to `Cc1ccc(OC(C)(C)C(=O)N[C@@H](C)[C@@H](Cc2ccc(OCC[18F])cc2)c2cccc(C#N)c2)nc1` [[^18F]MK-9470, N-(1S,2S)-2–(3-cyanophenyl)-3–[4-(2-[^18F]fluoroethoxy)phenyl]-1-methylpropyl-2-methyl-2-[(5-methylpyridin-2-yl)oxy]propanamide], the “lipophilicity, logD7.3” value in series [4] was 4.7. Moreover, the “binding to CB1 receptors in the mouse brain” value on CB1 receptor [5] is recorded as “binds specifically”. For the same compound, the “Category of [^18F]MK-9470 accumulation” value was “++ (Parameters within the interval 1.8–2.2 %ID/ml were rated as “++”)” on CB1 receptor [6] (Amygdala); “++ (Parameters within the interval 1.8–2.2 %ID/ml were rated as “++”)” on CB1 receptor [6] (Basal forebrain septum); “+++ (signals within the interval 2.2–2.6 %ID/ml were classified as “+++.”)” on CB1 receptor [6] (Basal ganglia: caudate putamen); “++ (Parameters within the interval 1.8–2.2 %ID/ml were rated as “++”)” at CB1 receptor [6] (Brain stem); “++ (Parameters within the interval 1.8–2.2 %ID/ml were rated as “++”)” at CB1 receptor [6] (Cerebellum (whole region)); “++ (Parameters within the interval 1.8–2.2 %ID/ml were rated as “++”)” on CB1 receptor [6] (Cerebral cortex). Further, the “Category of [^18F]MK-9470 accumulation” value is “+++ (signals within the interval 2.2–2.6 %ID/ml were classified as “+++.”)” on CB1 receptor [6] (Hippocampus); “++ (Parameters within the interval 1.8–2.2 %ID/ml were rated as “++”)” at CB1 receptor [6] (Hypothalamus); “+++ (signals within the interval 2.2–2.6 %ID/ml were classified as “+++.”)” on CB1 receptor [6] (Mesencephalon (whole region)); “+ (signals within the interval 1.5–1.8 %ID/ml lead to a rating of “+.”)” on CB1 receptor [6] (Olfactory bulb); “+++ (signals within the interval 2.2–2.6 %ID/ml were classified as “+++.”)” on CB1 receptor [6] (Substantia grisea centralis); “+++ (signals within the interval 2.2–2.6 %ID/ml were classified as “+++.”)” on CB1 receptor [6] (setting [10]). Moreover, the entries for the “Category of [^18F]MK-9470 accumulation” value at CB1 receptor [6] (setting [11]), at CB1 receptor [6] (Thalamus) and at CB1 receptor [6] (Whole-brain) were “+++ (signals within the interval 2.2–2.6 %ID/ml were classified as “+++.”)”, “+++ (signals within the interval 2.2–2.6 %ID/ml were classified as “+++.”)” and “++ (Parameters within the interval 1.8–2.2 %ID/ml were rated as “++”)”, respectively. The “[^18F]MK-9470 %ID/ml” value on CB1 receptor [6] (Amygdala) was determined as 1.87 ± 0.38 %ID/ml; at CB1 receptor [6] (Basal forebrain septum), 2.07 ± 0.29 %ID/ml; on CB1 receptor [6] (Basal ganglia: caudate putamen), 2.33 ± 0.40 %ID/ml; at CB1 receptor [6] (Brain stem), 1.95 ± 0.36 %ID/ml; on CB1 receptor [6] (Cerebellum (whole region)) it was 2.11 ± 0.40 %ID/ml; on CB1 receptor [6] (Cerebral cortex) it was 1.92 ± 0.32 %ID/ml. In addition, the “[^18F]MK-9470 %ID/ml” value on CB1 receptor [6] (Hippocampus) is reported as 2.29 ± 0.41 %ID/ml; at CB1 receptor [6] (Hypothalamus), 1.99 ± 0.34 %ID/ml; at CB1 receptor [6] (Mesencephalon (whole region)) it was 2.41 ± 0.42 %ID/ml; on CB1 receptor [6] (Olfactory bulb) it was 1.47 ± 0.08 %ID/ml; at CB1 receptor [6] (Substantia grisea centralis (central gray)), 2.56 ± 0.39 %ID/ml; at CB1 receptor [6] (setting [10]), 2.48 ± 0.35 %ID/ml. Further, the “[^18F]MK-9470 %ID/ml” value on CB1 receptor [6] (setting [11]) is 2.44 ± 0.37 %ID/ml; on CB1 receptor [6] (Thalamus), 2.34 ± 0.35 %ID/ml; at CB1 receptor [6] (Whole-brain), 2.19 ± 0.35 %ID/ml. The “range of mean values of %ID/ml over brain regions” value at CB1 receptor [6] (all brain regions, 40–60 min) is on record as 1.5–2.6 %ID/ml. Further, at CB1 receptor [6] (summed images 40–60 min), the “coefficients of variation for all brain regions” value was 5–20%. Further, at CB1 receptor [6] (whole brain time course, 60 min), the “kinetics in the mouse brain” value is reported as “slow kinetics”. The “time of uptake into the mouse brain after injection” value at CB1 receptor [6] (whole brain, i.v. tail vein) was ≤ 5 min. The “coefficient of variation of whole-brain radioactivity concentration” value at CB1 receptor [6] (whole brain, interval from maximum to end of acquisition) was “approximately 12%”. Further, at CB1 receptor [6] (whole mouse brain, from maximum until the end of the acquisition (60 min)), the “mean value of radioactivity concentration after reaching maximum” value was “approximately 2.2 %ID/ml”. In the series on CB1 receptor [7] (whole brain VOI, n = 2), the “level of the unspecific signal in the CB1 receptor knock-out mouse, of the maximum signal measured in the wild-type mice” value is given as “about 20%”. In addition, the “unspecific binding, of the signal present in a wild-type mouse” value with CB1 receptor [7] (whole brain, period of 40–60 min) is reported as “approximately 20%”. The “time to plateau after injection” value is “approximately 120 min” in the series with CB1 receptor [8] and “approximately 300 min” with CB1 receptor [9] (rat brain, ref Casteels et al., 2012). Moreover, in the series with CB1 receptor [9] (rats, receptor blocking with rimonabant before PET, ref Miederer et al., 2013), the “portion of the signal allocated to unspecific binding” value is 58%.
